Results published in patent US20250127168A1, “METHOD FOR PATHOGENS, MICROORGANISMS, AND PARASITES INACTIVATION” (New York Blood Center, Inc., priority 2018, published 2025).

Tests used:
RSV's fusion (F) protein = target: T1, RSV's fusion (F) protein (Human respiratory syncytial virus A, UniProt P03420); assay: Anti-F antibody binding to treated RSV (ELISA); details: 100 μM, 4 hours at 40° C.
T1 construct: Sucrose gradient-purified RSV was treated with compound VI and compound X; host or cells: sucrose gradient-purified RSV virions
T1 sequence (P03420 137-574): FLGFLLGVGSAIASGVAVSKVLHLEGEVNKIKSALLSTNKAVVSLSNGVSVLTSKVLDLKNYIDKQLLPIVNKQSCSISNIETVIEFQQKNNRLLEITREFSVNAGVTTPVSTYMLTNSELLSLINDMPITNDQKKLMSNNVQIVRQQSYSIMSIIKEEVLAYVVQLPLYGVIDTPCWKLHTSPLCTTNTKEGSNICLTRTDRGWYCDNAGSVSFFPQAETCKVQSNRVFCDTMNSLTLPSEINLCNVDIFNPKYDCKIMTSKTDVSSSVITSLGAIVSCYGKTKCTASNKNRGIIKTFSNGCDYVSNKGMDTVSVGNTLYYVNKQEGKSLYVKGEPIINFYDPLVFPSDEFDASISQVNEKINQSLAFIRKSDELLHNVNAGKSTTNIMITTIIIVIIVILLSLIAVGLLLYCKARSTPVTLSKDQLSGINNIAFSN
T1 sequence (P03420 26-109): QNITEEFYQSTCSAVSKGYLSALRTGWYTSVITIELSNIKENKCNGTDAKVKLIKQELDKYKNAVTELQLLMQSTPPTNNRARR
Protocol: Controls included mock-treated RSV incubated for 4 hours at 40° C. and non-treated virus kept at 4°° C. ELISA assay was performed according procedure described by Schmidt et al, J Virol. […] Eight serial 1:2 dilutions in PBS were plated (50 µl/well) in triplicates into 96-well plates, and incubated overnight at 4° C. The wells were washed with PBS and blocked with PBS/1% BSA. Anti-protein F antibody was added, and the mixture was incubated for 2 h, followed by washings and the addition of anti-mouse IgG HRP conjugate. After another round of washing, TMB substrate and sulfuric acid were added and readings were conducted using ELISA Reader SPECTRAmax PLUS (Molecular Devices,

[1] = test system: whole blood or red blood cells concentrate; assay: Quality of treated whole blood and red blood cells concentrate (complete blood count and biochemistry); details: 500 μM for 6 hours at RT, neutralized with sodium thiosulfate; storage at 4-6° C., weekly testing
Protocol: Ten mL samples of whole blood or red blood cells concentrate (RBCC, 25 mL) were treated with 500 μM compound VI for 6 hours at RT. The residual compound VI was neutralized by the same volume of 10 mM sodium thiosulfate for 2 hours at RT. For controls, identical samples of whole blood or RBCC were treated with saline and sodium thiosulfate without compound VI or with saline only without compound VI and/or thiosulfate. Aliquots of whole blood and RBCC from each sample were subjected to complete blood count and biochemistry analysis using IDEXX Procyte Dx Hematology Analyzer and IDEXX Catalyst Dx Chemistry Analyzer according to manufacturer recommendations. The samples were analyzed immediately after the treatment and re-analyzed after one week for whole blood and every week for 5 weeks of storage at 4-6° C. for RBCC. The following parameters were measured: RBC number, hemoglobin, hematocrit, mean corpuscular volume, mean corpuscular hemoglobin, red cell distribution, reticulocyte count, platelets, mean platelet volume, white blood cells, neutrophils, lymphocytes, monocytes, eosinophils, basophils, chloride, potassium, sodium, glucose, and lactate concentrations.

[2] = test system: Bovine viral diarrhea virus (BVDV); assay: Viral inactivation in RS, endpoint dilution assay; assay type: cell-based; details: 100 μM, RT
Protocol: The porcine parvovirus (PPV) was inactivated by using compound VI and compound X. Treatments were conducted in RS (pH 6.9) at RT with 100 μM using compound VI and compound X and 10% virus spike. Residual compounds were quenched by incubation with 10 mM Na2S2O3 for 2 hours at RT. Virus titers, expressed as Log10TCID50/mL, were determined using the standard endpoint dilution assay with permissive to PPV porcine testis cells. After the incubation of indicator cells for 6 days, infected wells were counted under microscope by visual inspection. To confirm the results, secondary infection using conditioned media from the first plate wells as samples was conducted.
Bovine viral diarrhea virus (BVDV) was inactivated by using compound VI and compound X. The protocol used for […] except the indicator cells, which were bovine turbinate cells.

Cytochrome C = Cytochrome C (Equus caballus, UniProt P00004); assay: Reactivity with Cytochrome C (electrospray MS); assay type: biochemical; details: 8 μM protein; 0.1, 1, 10 mM compound; pH 7.0, 40° C.; 1, 4 and 30 h
Cytochrome C, sequence (P00004 whole entry): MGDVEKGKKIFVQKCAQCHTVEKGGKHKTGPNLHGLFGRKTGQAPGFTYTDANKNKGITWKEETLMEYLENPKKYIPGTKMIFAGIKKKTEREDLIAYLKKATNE
Description: Using alkylating molecules to inactivate pathogens in blood product has potentially harmful side effect—their reaction with proteins may create neoantigens, i.e., they may become haptens. To assess the hapten potential of the compounds of Structure I, their ability to modify Cytochrome C was studied. Cytochrome C (MW of 12384 Da) was selected as a model protein because it contains a number of amino acids with nucleophilic side chains: 19 Lys, 2 Cys, 3 Asp, 9 Glu, 3 His, and 4 Tyr, which are potential targets for alkylation by the compounds of Structure I. Cytochrome C, 0.1 mg/mL (8 μM) solution in phosphate buffered saline was incubated with 0 (control), 0.1, 1, and 10 mM of compounds VI or X at pH 7.0 for 30 h at 40° C. Aliquots of the incubation mixtures were analyzed at 1, 4 and 30 h by electrospray mass spectrometry in the positive ionization mode with direct infusion into a LCQ Advantage mass spectrometer (Thermo-Finnigan, San Jose, CA) for the formation of covalent adducts of the protein with the test compounds.

[3] = Binding of compound X to sulfonic cation exchange resin (Purolite NRW160, Na+ form) through ion pairs; assay type: physicochemical; details: 50 mg dry beads in one mL of 100 μM solution in PBS
Protocol: Purolite NRW160 polystyrene divinylbenzene cross-linked resin functionalized with sulfonic groups in the H^+ form, 500 g was transferred into the Na^+ form by the following steps: The beads were washed on a vacuum filter and under a sterile hood with 3 volumes of saturated NaCl solution, followed by two volume of 1 M NaOH. After NaOH sterilization beads were washed by sterile deionized water until the pH of the rinsings became neutral. The beads were incubated with two volumes of methanol for 15 min and after removing of methanol were rinsed again with three volumes of sterile deionized water. After final incubation in methanol (2 volumes) the alcohol was removed by filtration and beads were dried under the vacuum.
Dry beads, 50 mg were added to one mL of 100 μM solution of compound X in phosphate buffered saline.

[4] = Neutralization of compound X with glutathione; details: in presence of glutathione, same conditions
[5] = test system: synthetic 23-mer oligoribonucleotide (SEQ ID NO:2); assay: Reactivity toward nucleic acids, mass spectrometry; assay type: biochemical; details: 100 μM oligonucleotide, 100 μM compound, PBS pH 7, room temperature, 6 min
[6] = Neutralization of compound X with methyl thiosalicylate (LCMS); assay type: physicochemical; details: 100 μM compound X, 10 mM methyl thiosalicylate, PBS
Protocol: The rate of neutralization of […] can be determined by plotting of logarithm of compound X concentration, determined by its peak area against the time of incubation.

[7] = Neutralization of compound X by ethyl 2-mercaptoacetate (LCMS); assay type: physicochemical; details: PBS, RT; for Peak Areas (LCMS): 100 μM X + 10 mM ethyl 2-mercaptoacetate
Protocol: 100 μM solution of compound X in phosphate buffered saline was incubated at room temperature with 10 mM of ethyl-2-mercaptoacetate, and the change of the concentration of compound X, as well as the formation of the intermediate compound of neutralization (XXI) and the final compound of neutralization XXII was determined by LCMS analysis of the mixture. The reaction scheme of neutralization is presented below. The peak areas of compound X, intermediate neutralization product, Q1 (compound XXI) and final neutralization product, Q2 (compound XXII) are presented in the Table 8 below, and in FIG. 18.

[8] = Neutralization of compound X with thiophenol (LCMS); details: for ratio of the peak areas of compounds X, XXVI and XXVII: 100 μM X, 10 mM thiophenol, PBS
Description: In the right panel are shown the mass spectra of the corresponding peaks.

CN(CCCCN(C)CCCN1CC1)CCCN1CC1 [Compound VI, N^1,N^4-bis(3-(aziridin-1-yl)propyl)-N^1,N^4-dimethylbutane-1,4-diamine]
recognition of the F protein by monoclonal antibody after treatment (RSV's fusion (F) protein): did not change the degree of recognition of the F protein
cellular or biochemical characteristics of treated blood versus controls [1]: No differences in cellular or biochemical characteristics
BVDV titer ([2]; incubation 1 h): 3.27 Log10TCID50/mL
BVDV titer ([2]; incubation 3 h): 1.30 Log10TCID50/mL
BVDV titer ([2]; incubation 6 h): below the limit of detection and BLD
covalent adducts with cytochrome C (Cytochrome C): absence of covalent adducts

CN(CCCCN(C)CCCN1CC1)CCCN(C)CCCN1CC1 [Compound X]
concentration of compound X in the supernatant [3]: below 30 nM
recognition of the F protein by monoclonal antibody after treatment (RSV's fusion (F) protein): did not change the degree of recognition of the F protein
half-life of compound X [4]: 7.5 h
covalent adduct with the oligonucleotide (MS) [5]: covalent mono-adduct
compound X half-life T1/2 [6]: 0.277 h
first order rate constant of concentration decrease ([7]; 10 mM ethyl 2-mercaptoacetate): 0.022 min⁻¹
Peak Areas (LCMS) ([7]; Time 6 min): 161.9
Peak Areas (LCMS) ([7]; Time 14.5 min): 128.8
Peak Areas (LCMS) ([7]; Time 23.1 min): 123.1
Peak Areas (LCMS) ([7]; Time 31.6 min): 96.3
Peak Areas (LCMS) ([7]; Time 40.2 min): 85
Peak Areas (LCMS) ([7]; Time 48.7 min): 76.9
Peak Areas (LCMS) ([7]; Time 57.3 min): 52.9
Peak Areas (LCMS) ([7]; Time 65.8 min): 42.7
Peak Areas (LCMS) ([7]; Time 74.3 min): 33.1
Peak Areas (LCMS) ([7]; Time 82.9 min): 26
Peak Areas (LCMS) ([7]; Time 91.4 min): 23.2
Peak Areas (LCMS) ([7]; Time 100.0 min): 17.4
Peak Areas (LCMS) ([7]; Time 108.5 min): 14
Peak Areas (LCMS) ([7]; Time 117.1 min): 11.5
Peak Areas (LCMS) ([7]; Time 125.6 min): 7.6
ratio of the peak areas of compounds X, XXVI and XXVII ([8]; after 1 min and 40 sec (100 sec)): 21
ratio of the peak areas of compounds X, XXVI and XXVII ([8]; after 10 min): 3
ratio of the peak areas of compounds X, XXVI and XXVII ([8]; after 20 min): 0.5
half-life of compound X ([8]; in presence of 10 mM of thiophenol): below 1 min
BVDV titer ([2]; incubation 1 h): 3.88 Log10TCID50/mL
BVDV titer ([2]; incubation 3 h): 2.94 Log10TCID50/mL
BVDV titer ([2]; incubation 6 h): 0.84 Log10TCID50/mL
covalent adducts with cytochrome C (Cytochrome C): absence of covalent adducts
